Data taken from patent US12669497B2, “Affinity labeling of DNA-linked ligands for high throughput ligand binding assays and the uses thereof” (Purdue Research Foundation, priority 2020, dated 2026).

Legend:
DHFR = DHFR (Escherichia coli, UniProt P0ABQ4); assay: Validation of novel hit by FP assay (IC50); type: binding; details: validation of screening hit; FIG. 2g
Procedure: (§1) FIGS. 2A-2H show the application of LDA in quantifying compounds' IC50 and screening. […] IC50 of compound 1-3 determined by LDA (FIG. 2B) and FP assay (FIG. 2C). […] DNA samples with read numbers below 2 in sequencing were excluded.
(§2) Enrichment of the probes from the two groups were well distinguished (Z′ factor=0.77), indicating a robustness suitable for HTS (FIG. 1e). To further assess well-to-well variability, this experiment was repeated with separate incubation of samples in a well plate. A similar but slightly worse Z′ factor (Z′=0.54, Fig. SX) was observed. We then used this approach to screen the Library of Pharmacologically Active Compounds (LOPAC) library against dihydrofolate reductase (DHFR), a therapeutic target for treating infections (FIG. 2f). Hit compounds within the library displaces the DNA-linked trimethoprim, leading to lower enrichment of the DNA-trimethoprim.

[1] = molecular target: dihydrofolate reductase (DHFR) (Escherichia coli, UniProt P0ABQ4); assay: LDA screening of LOPAC library with DNA-linked trimethoprim probe; type: binding; details: FIG. 2f
Procedure: as §1, §2

CN(CCOc1ccc(C[C@H](Nc2ccccc2C(=O)c2ccccc2)C(=O)O)cc1)c1ccccn1 [GW1929]
IC50 (DHFR): 7.9 µM | probe recovery (enrichment of DNA-trimethoprim) in LOPAC screen [1]: low probe recovery
